Data published in patent publication US20240122180A1, “FUNGICIDAL HALOMETHYL KETONES AND HYDRATES AND THEIR MIXTURES” (FMC Corporation, priority 2020, published 2024).

Experiments:
[1] = tested on: Phakopsora pachyrhizi (the causal agent of Asian soybean rust); assay: Test A: preventive spray on soybean seedlings, visual disease rating (100 = 100% control; * 50 ppm, ** 10 ppm, *** 250 ppm); assay type: in vivo; conditions: 100 = 100% disease control, 0 = no control
Procedure, shortened: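 Soybean seedlings sprayed to run-off with compound suspended in acetone/water with 250 ppm PEG400 surfactant, inoculated next day with P. pachyrhizi spores. Kept 24 h saturated at 22 °C, then 8 days at 22 °C before visual rating of disease control (0-100) relative to controls.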

[2] = tested on: Puccinia recondita f. sp. tritici (the causal agent of wheat leaf rust); assay: Test B: preventive spray on wheat seedlings, disease rating (100 = 100% control; * 50 ppm, ** 10 ppm, *** 250 ppm); assay type: in vivo; conditions: 100 = 100% disease control, 0 = no control
Procedure, shortened: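 Wheat seedlings sprayed to run-off with compound in acetone/water (50/50) containing 250 ppm PEG400, inoculated next day with Puccinia recondita f. sp. tritici spores. Held 24 h saturated at 20° C, then 6 days at 20° C; disease control rated 0–100 relative to controls.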

| Compound | Test A disease control rating ([1]; 10 ppm test suspension) | Test B disease control rating ([2]; 10 ppm test suspension) | Test A disease control rating ([1]; 50 ppm test suspension) | Test B disease control rating ([2]; 50 ppm test suspension) |
| --- | --- | --- | --- | --- |
| O=C(NCC(F)(F)F)c1cnc(Cc2ccc(OCC3(C(F)(F)F)OCCO3)cc2)s1 [compound 275] | 0% | 0% |  |  |
| O=C(NCC(F)(F)F)c1cnc(Cc2ccc(OCC(O)(O)C(F)(F)F)cc2)s1 [compound 277] | 50% | 45% |  |  |
| CCOC(=O)C1=NOC(c2ccc(O/C=C(\OCC)C(F)(F)F)cc2)C1 (stereo not shown) [compound 278] |  |  | 94% | 0% |
| CCOC(=COc1ccc([N+](=O)[O-])cc1)C(F)(F)F [compound 279] |  |  | 0% | 0% |
| CSc1nccc(Cc2ccc(OCC3(C(F)(F)F)OCCO3)cc2)n1 [compound 281] |  |  | 95% | 98% |
| CS(=O)(=O)c1nccc(Cc2ccc(OCC3(C(F)(F)F)OCCO3)cc2)n1 [compound 282] |  |  | 0% | 0% |
| O=C(OCC1CCCC1)c1cnn(Cc2ccc(OCC3(C(F)(F)F)OCCO3)cc2)c1 [compound 284] | 100% | 0% |  |  |
| CCOC(=O)c1cnn(CCCc2ccc(OCC(O)(O)C(F)(F)F)cc2)c1 [compound 286] | 87% | 55% |  |  |
| CCOC(=O)C1=NOC(Cc2ccc(OC=C(OCC)C(F)(F)F)cc2)C1 (stereo not shown) [compound 287] |  |  | 77% | 0% |
| CCOC(=COc1ccc(CC2CC(C(=O)N(C)C)=NO2)cc1)C(F)(F)F (stereo not shown) [compound 288] |  |  | 96% | 0% |
| CCOC(=O)C1=NOC(Cc2ccc(OCC3(C(F)(F)F)OCCO3)cc2)C1 (stereo not shown) [compound 289] | 0% | 0% |  |  |
| CN(C)C(=O)C1=NOC(Cc2ccc(OCC3(C(F)(F)F)OCCO3)cc2)C1 (stereo not shown) [compound 290] |  |  | 50% | 19% |
| C=CCOC(=O)c1ccn(Cc2ccc(OC=C(OCC)C(F)(F)F)cc2)n1 [compound 291] | 100% | 0% |  |  |
| CCCOC(=O)c1ccn(Cc2ccc(OC=C(OCC)C(F)(F)F)cc2)n1 [compound 292] | 100% | 0% |  |  |
| CC#CCOC(=O)c1ccn(Cc2ccc(O/C=C(\OCC)C(F)(F)F)cc2)n1 [compound 293] | 100% | 0% |  |  |
| CCOC(=O)c1cnn(CCCc2ccc(O/C=C(\OCC)C(F)(F)F)cc2)c1 [compound 294] | 100% | 0% |  |  |
| O=C(NCC(F)F)c1cnc(Cc2ccc(OCC(O)(O)C(F)(F)F)cc2)s1 [compound 295] |  |  | 99% | 80% |
| CCOC(=O)c1cnn(CCCc2ccc(OCC3(C(F)(F)F)OCCO3)cc2)c1 [compound 296] | 0% | 0% |  |  |
| CCOC(=O)c1cnn(Cc2ccc(O/C=C(\OCC)C(F)(F)F)cc2)c1 [compound 298] | 0% | 0% |  |  |
| CCO/C(=C\Oc1ccc(Cn2ccc(C(=O)O)n2)cc1)C(F)(F)F [compound 299] | 100% | 0% |  |  |
| CC#CCOC(=O)c1cnn(Cc2cccc(O/C=C(\OCC)C(F)(F)F)c2)c1 [compound 300] | 100% | 0% |  |  |
| CCOC(=O)c1cnn(Cc2cc(O/C=C(\OCC)C(F)(F)F)ccc2F)c1 [compound 302] |  |  | 99% | 0% |
| CCOC(=O)c1cnn(Cc2cccc(O/C=C(\OCC)C(F)(F)F)c2C)c1 [compound 303] |  |  | 0% | 0% |
| CCOC(=O)c1cnn(C(C)c2cccc(O/C=C(\OCC)C(F)(F)F)c2)c1 (stereo not shown) [compound 304] |  |  | 96% | 0% |
| CCO/C(=C\Oc1ccc(Cc2ccnc(OCC(F)F)n2)cc1)C(F)(F)F [compound 306] |  |  | 96% | 68% |
| CCOC(=COc1ccc(Cc2ccnc(S(C)(=O)=O)n2)cc1)C(F)(F)F [compound 307] |  |  | 0% | 0% |
| CCOC(=COc1ccc(Cc2ccnc(SC)n2)cc1)C(F)(F)F [compound 308] |  |  | 25% | 0% |
| CCOC(=COc1ccc(CN2CCC(C(=O)OC)CC2)cc1)C(F)(F)F [compound 309] | 100% | 0% |  |  |
| CCOC(=COc1ccc(CN2CCC(C(=O)OC)C2)cc1)C(F)(F)F (stereo not shown) [compound 310] | 100% | 0% |  |  |
